According to US6410792B1, “Amide derivatives and methods for using the same as selective neuropeptide Y receptor antagonists” (Bayer Corporation, priority 1997, dated 2002):

Assays:
Y2 receptor = target: T1, Y2 receptor (Homo sapiens, UniProt P49146); assay: Y2 receptor binding assay ([125I]PYY, membrane protein); conditions: [125I]PYY, membrane protein; read-out: hNPY2 IC50
T1 sequence (P49146 1-381): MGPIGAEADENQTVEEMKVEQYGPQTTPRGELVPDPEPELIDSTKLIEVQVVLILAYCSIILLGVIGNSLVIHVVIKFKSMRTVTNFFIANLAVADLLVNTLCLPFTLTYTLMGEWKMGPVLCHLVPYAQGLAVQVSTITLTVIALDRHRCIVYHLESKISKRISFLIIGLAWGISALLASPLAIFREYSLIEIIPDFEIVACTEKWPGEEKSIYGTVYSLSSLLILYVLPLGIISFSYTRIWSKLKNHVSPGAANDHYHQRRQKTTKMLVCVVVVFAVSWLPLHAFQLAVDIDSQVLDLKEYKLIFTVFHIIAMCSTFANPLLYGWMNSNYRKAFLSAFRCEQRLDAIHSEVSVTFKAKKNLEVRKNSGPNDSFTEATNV
Outline: (§1)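 Filtration binding with membrane protein and drug dilution, 2 h at room temperature with mixing, radioactivity counted by gamma or scintillation. Y2: 25 pM [125I]PYY in Krebs-Ringer bicarbonate pH 7.4 with 0.01% BSA, nonspecific by 1 μM NPY. Y4/PP1: 50 pM [125I]hPP in HEPES-buffered saline pH 7.4 with protease inhibitors and 0.3% BSA, nonspecific by 1 μM hPP.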

Human NPY5 receptor = target: T2, Human NPY5 receptor (Homo sapiens, UniProt Q15761); assay: Human NPY5 receptor binding assay ([125I]PYY, membrane protein); conditions: [125I]PYY, read-out: hNPY5 IC50
T2 sequence (Q15761 1-445): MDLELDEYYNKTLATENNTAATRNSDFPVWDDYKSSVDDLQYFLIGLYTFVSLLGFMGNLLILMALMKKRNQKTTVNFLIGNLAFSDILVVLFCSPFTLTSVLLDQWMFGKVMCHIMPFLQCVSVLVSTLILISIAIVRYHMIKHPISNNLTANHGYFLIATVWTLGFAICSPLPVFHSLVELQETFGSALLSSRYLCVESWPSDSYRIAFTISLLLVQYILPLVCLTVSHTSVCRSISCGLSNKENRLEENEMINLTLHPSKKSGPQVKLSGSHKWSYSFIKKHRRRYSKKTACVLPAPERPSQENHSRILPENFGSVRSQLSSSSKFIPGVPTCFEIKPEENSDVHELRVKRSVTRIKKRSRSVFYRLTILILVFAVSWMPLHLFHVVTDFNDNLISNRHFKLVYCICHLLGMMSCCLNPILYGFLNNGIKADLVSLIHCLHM
Outline: (§2)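 Radioligand displacement: 75-100 pM [125I]PYY (porcine), membranes, drug dilution; 2 h, RT, mixing; 25 mM Tris pH 7.4 with 0.1% BSA, 0.5 mg/ml bacitracin. NSB 1 μM PYY. Filtration on PEI-treated GF/C, ice-cold buffer wash, gamma or scintillation counting.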

Rat NPY5 receptor = target: T3, Rat NPY5 receptor (Rattus norvegicus, UniProt Q63634); assay: Rat NPY5 receptor binding assay ([125I]PYY, membrane protein); conditions: [125I]PYY, read-out: rNPY5 IC50
T3 sequence (Q63634 1-445): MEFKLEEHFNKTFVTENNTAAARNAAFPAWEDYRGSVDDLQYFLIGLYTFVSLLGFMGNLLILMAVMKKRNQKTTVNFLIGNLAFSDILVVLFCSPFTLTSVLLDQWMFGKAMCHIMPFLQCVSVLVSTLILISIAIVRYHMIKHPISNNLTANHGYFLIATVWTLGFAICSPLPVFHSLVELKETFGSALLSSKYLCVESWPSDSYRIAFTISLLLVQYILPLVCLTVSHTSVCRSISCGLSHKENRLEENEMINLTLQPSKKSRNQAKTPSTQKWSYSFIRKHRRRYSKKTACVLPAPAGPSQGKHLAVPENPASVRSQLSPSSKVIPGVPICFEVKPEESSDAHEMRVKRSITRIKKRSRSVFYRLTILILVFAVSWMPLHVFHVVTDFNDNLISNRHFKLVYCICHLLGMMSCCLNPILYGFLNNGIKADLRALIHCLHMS
Outline: as §2

Human NPY1 receptor = target: T4, Human NPY1 receptor (Homo sapiens, UniProt P25929); assay: Human NPY1 receptor binding assay ([125I]PYY, SK-N-MC cells); conditions: [125I]PYY, SK-N-MC cells; read-out: hNPYI IC50
T4 construct: host or cells: SK-N-MC cells
T4 sequence (P25929 1-384): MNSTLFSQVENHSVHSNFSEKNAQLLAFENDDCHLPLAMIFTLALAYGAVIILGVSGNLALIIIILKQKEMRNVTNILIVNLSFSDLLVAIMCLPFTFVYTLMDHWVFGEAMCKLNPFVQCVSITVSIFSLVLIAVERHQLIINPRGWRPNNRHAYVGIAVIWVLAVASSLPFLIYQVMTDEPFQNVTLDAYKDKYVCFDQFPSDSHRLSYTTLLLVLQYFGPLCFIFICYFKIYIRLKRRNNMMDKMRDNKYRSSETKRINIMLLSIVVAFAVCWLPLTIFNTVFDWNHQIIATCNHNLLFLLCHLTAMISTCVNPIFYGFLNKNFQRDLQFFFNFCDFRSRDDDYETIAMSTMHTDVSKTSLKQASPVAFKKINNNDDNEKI
Outline: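 Whole-cell competition with ~50 pM [125I]PYY on SK-N-MC monolayers, 3 h at room temperature after 30 min preincubation in HEPES-buffered (pH 7.3) serum-free DMEM containing protease inhibitors. Gamma counting of cell lysates; 1 μM NPY gave nonspecific binding.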

human Y4/PP1 receptor = human Y4/PP1 receptor (Homo sapiens, UniProt P50391); assay: Human Y4/PP1 receptor binding assay ([125I]human PP, membrane protein); conditions: [125I]human PP, membrane protein; read-out: hNPY4 IC50
Outline: as §1

Sequence of human Y4/PP1 receptor (P50391 whole entry): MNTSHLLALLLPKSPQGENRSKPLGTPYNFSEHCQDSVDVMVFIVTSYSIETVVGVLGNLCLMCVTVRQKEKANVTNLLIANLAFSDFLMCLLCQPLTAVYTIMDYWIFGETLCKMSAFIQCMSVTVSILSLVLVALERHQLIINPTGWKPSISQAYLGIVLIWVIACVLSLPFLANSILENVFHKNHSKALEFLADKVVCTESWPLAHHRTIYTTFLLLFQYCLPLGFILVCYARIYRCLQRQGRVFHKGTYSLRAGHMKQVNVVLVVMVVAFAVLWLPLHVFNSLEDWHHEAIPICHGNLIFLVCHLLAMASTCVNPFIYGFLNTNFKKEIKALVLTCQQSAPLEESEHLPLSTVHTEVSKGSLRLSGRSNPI

IC50 (Y2 receptor)	melting point	IC50 (Human NPY5 receptor)	IC50 (Rat NPY5 receptor)	IC50 (Human NPY1 receptor)	IC50 (human Y4/PP1 receptor)	Compound
> 5 µM	118 to 119 °C	0.94 µM	0.63 µM	> 5 µM	> 5 µM	O=C(CN1CCCCC1)Nc1ccc(C2CCCCC2)cc1 [Compound 252, N-(4-Cyclohexyl-phenyl)-2-(piperidine)-acetamide]
> 5 µM	182 to 183 °C	0.1 µM		> 5 µM	> 5 µM	O=C(CN1CCC(n2c(=O)[nH]c3ccccc32)CC1)Nc1ccc(Cc2ccccc2)cc1 [Compound 258, N-(4-Benzyl-phenyl)-2-[4-(2-oxo-2,3-dihydro-benzoimidazol-1-yl)-piperidin-1-yl]-acetamide]
> 5 µM	168 to 177 °C	0.014 µM		> 5 µM	> 5 µM	CC(C)OC(=O)c1ccc(NC(=O)CN2CCC(n3c(=O)[nH]c4ccccc43)CC2)cc1 [Compound 260]
> 5 µM	164 to 165 °C	0.59 µM		> 5 µM	> 5 µM	CCOC(=O)Cc1ccc(NC(=O)CN2CCC(n3c(=O)[nH]c4ccccc43)CC2)cc1 [Compound 261, (4-{2 [4-(2-Oxo-2,3-dihydro-benzoimidazol-1-yl)-piperidin-1-yl]-acetylamino}-phenyl)-acetic acid ethyl ester]
> 5 µM	234 to 235 °C	0.79 µM		> 5 µM	> 5 µM	O=C(CN1CCC(n2c(=O)[nH]c3ccccc32)CC1)Nc1ccc(C=Cc2ccccc2)cc1 [Compound 262, 2-[4-(2-Oxo-2,3-dihydro-benzoimidazol-1-yl)-piperidin-1-yl]-N-(4-styryl-phenyl)-acetamide]
> 5 µM	176 °C	0.0005 µM	0.0004 µM	> 5 µM	> 5 µM	O=C(CN1CCC(n2c(=O)[nH]c3ccccc32)CC1)Nc1ccc2c(c1)-c1ccccc1C2=O [Compound 266, 2-[4-(2-Oxo-2,3-dihydro-benzoimidazol-1-yl)-piperidin-1-yl]-N-(9-oxo-9H-fluoren-3-yl)-acetamide]
> 5 µM	134 to 135 °C	0.13 µM	0.12 µM	> 5 µM	> 5 µM	O=C(CN1CCC(n2c(=O)[nH]c3ccccc32)CC1)Nc1cccc(C(=O)c2ccccc2)c1 [Compound 268, N-(3-Benzoyl-phenyl)-2-[4-(2-oxo-2,3-dihydro-benzoimidazol-1-yl)-piperidin-1-yl]-acetamide]
> 5 µM	250 to 253 °C	> 10 µM	> 10 µM	> 5 µM	> 5 µM	CN(C(=O)CN1CCC(n2c(=O)[nH]c3ccccc32)CC1)c1ccc(C2CCCCC2)cc1 [Compound 270, N-(4-Cyclohexyl-phenyl)-N-methyl-2-[4-(2-oxo-2,3-dihydro-benzoimidazol-1-yl)-piperidin-1-yl]-acetamide]
> 5 µM	102 to 103 °C	5.4 µM	2.9 µM	> 5 µM	> 5 µM	O=C(CN1CCCCC1)Nc1ccc(-c2ccccc2)cc1 [Compound 271, N-Biphenyl-4-yl-2-piperidin-1-yl-acetamide]
> 5 µM	195 to 196 °C	0.117 µM	0.21 µM	> 5 µM	> 5 µM	O=C(CN1CCN(c2ccccc2)CC1)Nc1ccc(C2CCCCC2)cc1 [Compound 272, N-(4-Cyclohexyl-phenyl)-2-(4-phenyl-piperazin-1-yl)-acetamide]
	132 to 133 °C	7 µM	6.5 µM	> 5 µM	> 5 µM	O=C(CNC(c1ccccc1)c1ccccc1)Nc1ccc(C2CCCCC2)cc1 [Compound 273, 2-(Benzhydryl-amino)-N-(4-cyclohexyl-phenyl)-acetamide]
	222 to 223 °C	4.8 µM	1.5 µM	> 5 µM	> 5 µM	O=C(CN1CCC(NC(=O)Nc2ccccc2)CC1)Nc1ccc(C2CCCCC2)cc1 [Compound 274, N-(4-Cyclohexyl-phenyl)-2-[4-(3-phenyl-ureido)-piperidin-1-yl]-acetamide]
> 5 µM	148 to 150 °C	0.028 µM	0.012 µM	> 5 µM	> 5 µM	CC(C(=O)Nc1ccc(C2CCCCC2)cc1)N1CCC(n2c(=O)[nH]c3ccccc32)CC1 (stereo not shown) [Compound 278, N-(4-Cyclohexyl-phenyl)-2-[4-(2-oxo-2,3-dihydro-benzoimidazol-1-yl)-piperidin-1-yl]-propionamide]
> 5 µM	144 to 148 °C	0.13 µM	0.068 µM	> 5 µM	> 5 µM	CC(C(=O)Nc1ccc(C(C)(C)C)cc1)N1CCC(n2c(=O)[nH]c3ccccc32)CC1 (stereo not shown) [Compound 279]
> 5 µM	195 to 196 °C	> 10 µM	> 10 µM	> 5 µM	> 5 µM	CC(C)N(CCNC(=O)CN1CCC(n2c(=O)[nH]c3ccccc32)CC1)C(C)C [Compound 281, N-(2-Diisopropylamino-ethyl)-2-[4-(2-oxo-2,3-dihydro-benzoimidazol-1-yl)-piperidin-1-yl]-acetamide]
> 5 µM	258 °C	0.11 µM	0.084 µM		> 5 µM	Cl.O=C(CN1CCC(C(=O)c2ccc(F)cc2)CC1)Nc1ccc(C2CCCCC2)cc1 [Compound 292, N-(4-Cyclohexyl-phenyl)-2-[4-(4-fluoro-benzoyl)-piperidin-1-yl]-acetamide; hydrochloride]

Compound	IC50 (Y2 receptor)	melting point	IC50 (Human NPY5 receptor)	IC50 (Rat NPY5 receptor)	IC50 (Human NPY1 receptor)	IC50 (human Y4/PP1 receptor)
O=C(CN1CCC2(CC1)C(=O)NCN2c1ccccc1)Nc1ccc(C2CCCCC2)cc1 [Compound 269, N-(4-Cyclohexyl-phenyl)-2-(4-oxo-1-phenyl-1,3,8-triaza-spiro[4.5]dec-8-yl)-acetamide]	> 5 µM	117 to 118 °C	0.79 µM		> 5 µM	> 5 µM
